We go through eleven molecules from ChEMBL document CHEMBL1134601, “Coumarins derivatives as dual inhibitors of acetylcholinesterase and monoamine oxidase” (J Med Chem, 2001).

Assay [1] has as its target Acetylcholinesterase (Electrophorus electricus) (UniProt O42275).
Description: Competitive inhibitory activity against acetylcholinesterase (AChE)
Assay [2] shares this target. The source holds these as a separate data set.
Description: Non-competitive inhibitory activity against acetylcholinesterase (AChE)

Sequence of Acetylcholinesterase (Electrophorus electricus) (O42275 24-633 limits assumed): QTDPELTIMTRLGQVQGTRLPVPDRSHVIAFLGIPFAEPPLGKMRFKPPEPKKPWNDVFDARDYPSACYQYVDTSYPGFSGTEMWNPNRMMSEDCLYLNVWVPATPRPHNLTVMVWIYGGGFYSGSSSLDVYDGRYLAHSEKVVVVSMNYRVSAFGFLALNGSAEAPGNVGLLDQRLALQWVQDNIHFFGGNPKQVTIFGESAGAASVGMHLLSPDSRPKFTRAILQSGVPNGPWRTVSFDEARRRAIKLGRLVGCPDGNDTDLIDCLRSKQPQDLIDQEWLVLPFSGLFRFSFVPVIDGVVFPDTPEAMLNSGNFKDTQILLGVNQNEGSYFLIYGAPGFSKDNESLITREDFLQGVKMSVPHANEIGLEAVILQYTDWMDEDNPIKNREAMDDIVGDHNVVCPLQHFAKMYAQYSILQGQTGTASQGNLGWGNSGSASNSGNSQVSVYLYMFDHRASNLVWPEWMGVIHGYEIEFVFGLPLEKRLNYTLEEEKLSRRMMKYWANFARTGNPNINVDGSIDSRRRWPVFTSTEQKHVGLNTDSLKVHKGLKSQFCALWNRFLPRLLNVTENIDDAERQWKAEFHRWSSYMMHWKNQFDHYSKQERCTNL

On to `COc1ccc2c(C)c(C)c(=O)oc2c1`, for which, in assay [1], the pKic came out at 4.8. The pKinc in assay [2] was 4.56.
Take `Cc1c(C)c2ccc(OCc3ccc(F)c(F)c3)cc2oc1=O`: the pKinc in assay [2] amounted to 5.06.
Consider `Cc1c(C)c2ccc(O)cc2oc1=O`, for which the pKic in assay [1] came to 4.54. In assay [2], the pKinc amounted to 4.
In the case of `O=c1ccoc2ccc(OCc3ccccc3)cc12`, the pKinc in assay [2] amounted to 4.29.
For the molecule `Cc1ccccc1COc1ccc2c(C)c(C)c(=O)oc2c1`, the pKinc in assay [2] came out at 4.68.
The molecule `Cc1c(C)c2ccc(OCc3cccc(N)c3)cc2oc1=O` came in with a pKinc in assay [2] of 4.74.
Turning to `Cc1c(C)c2ccc(OCCc3ccccc3)cc2oc1=O`, in assay [2], the pKinc turned out to be 4.8.
In turn, `Cc1c(C)c2ccc(OCc3ccccc3)cc2oc1=O` showed a pKinc in assay [2] of 5.39.
On the same count and under the same terms, for `Cc1c(C)c2ccc(OCc3cc(F)cc(F)c3)cc2oc1=O` the value was 4.73.
For the molecule `Cc1cc(=O)c2cc(OCc3ccccc3)ccc2o1`, the pKic in assay [1] is 4.78. In addition, the pKinc in assay [2] came out at 4.53.
For the molecule `Cc1c(C)c2ccc(OCc3cccc(O)c3)cc2oc1=O`, the pKinc in assay [2] stood at 4.83.
